Test results: US20090099141A1, “COMPOSITIONS AND METHODS FOR TREATING VITAMIN D DEFICIENCIES” (priority 2005, published 2009)

Test: Serum level of 25(OH)D in an adult human after oral 250 μg (10,000 IU) vitamin D3 tablets (Nichols method)
Assay type: in vivo
Experimental: During the winter months an adult living in a northern region of the United States receiving no vitamin D supplements other than through their normal diet is found to have a serum level of 25(OH)D of about 25 nmole/L. The person is provided with four (4) blister packs, each pack containing four (4) 250 μg (10,000 IU) of vitamin D3. The blister pack has instructions to take one tablet by mouth once a week. The person is instructed to take all of the tablets according to instructions provided on the pack. Blood samples are drawn each week just before a tablet is taken and the serum levels of 25(OH)D are determined. Serum levels of 25(OH)D can be determined by the Nichols method (catalog no. 40-2135; Nichols Institute Diagnostics). Within approximately two months, serum levels increase by about 15 to about 20 nmole/L to a level of at least about 40 nmole/L.
During the winter months an adult living in a northern region of the United States receiving no vitamin D supplements other than through their normal diet is found to have a serum level of 25(OH)D of about 18 nmole/L. The person is provided with four (4) blister packs, each pack having one tablet for each day of the month [about thirty (30) tablets], and each tablet containing 250 μg (10,000 IU) of vitamin D3. The blister pack has instructions to take one tablet by mouth once a day, noting on the pack, where indicated, the date and time each tablet is taken. The person is instructed to take all of the tablets according to instructions provided on the pack. Blood samples are drawn after one (1) week and each week thereafter at approximately the same time and the serum levels of 25(OH)D are determined. Serum levels of 25(OH)D can be determined by the Nichols method (catalog no. 40-2135; Nichols Institute Diagnostics). Within approximately two months, serum levels increase by at least 100 nmole/L to a level of at least about 120 nmole/L and, within about 4 months, increase by at least about 180 nmole/L to a level of at least about 200 nmole/L.
During the winter months an adult living in a northern region of the United States receiving no vitamin D supplements other than through their normal diet is found to have a serum level of 25(OH)D of about 35 nmole/L. The person is provided with four (4) blister packs, each pack containing fifteen (15) 250 μg (10,000 IU) of vitamin D3. The blister pack has instructions to take one tablet by mouth once every other day, noting on the pack, where indicated, the date and time each tablet is taken. The person is instructed to take all of the tablets according to instructions provided on the pack. Blood samples are drawn each week at approximately the same time and the serum levels of 25(OH)D are determined. Serum levels of 25(OH)D can be determined by the Nichols method (catalog no. 40-2135; Nichols Institute Diagnostics). Within approximately one-month serum levels increase by at least about 60-70 nmole/L to a level of at least about 100 nmole/L and within about 4 months […] a level of about 120 nmole/L.

[1] = adult female, baseline about 18 nmole/L, 250 μg (10,000 IU) tablet by mouth once a day, within about 4 months
[2] = adult female, baseline about 18 nmole/L, 250 μg (10,000 IU) tablet by mouth once a day, within approximately two months
[3] = adult male, baseline about 35 nmole/L, 250 μg (10,000 IU) tablet by mouth once every other day, within approximately one month

SMILES: C=C1CC[C@H](O)C/C1=C/C=C1\CCC[C@]2(C)[C@@H]([C@H](C)CCCC(C)C)CC[C@@H]12 [vitamin D3]
- increase in serum level of 25(OH)D [1]: at least 180 nmole/L
- serum level of 25(OH)D [1]: at least 200 nmole/L
- increase in serum level of 25(OH)D [2]: at least 100 nmole/L
- serum level of 25(OH)D [2]: at least 120 nmole/L
- serum level of 25(OH)D (adult male, baseline about 25 nmole/L, 250 μg (10,000 IU) tablet by mouth once a week, within approximately two months): at least 40 nmole/L
- serum level of 25(OH)D (adult male, baseline about 35 nmole/L, 250 μg (10,000 IU) tablet by mouth once every other day, within about 4 months): about 120 nmole/L
- increase in serum level of 25(OH)D [3]: 60 to 70 nmol/L
- serum level of 25(OH)D [3]: at least 100 nmole/L
